Measurements published in US11130750B2, “Calcium channel inhibitors” (Cavion, Inc., priority 2017, dated 2021).

Test system: Human Glioma cancer cell line U251
Assay: Cell Proliferation Assay by CCK-8 Reagent
Type: cell-based
Settings: U251 cells, 72 hours incubation, CCK-8, % viability vs vehicle control
Experimental: Human Glioma cancer cell line U251 was maintained in DMEM (Gibco, Cat #10569-10) supplemented with 10% fetal bovine serum inactivated at 56° C. (Gibco, Cat #10082-147), 100 U/mL penicillin, and 100 μg/mL streptomycin (Gibco, Cat #15140-122) at 37° C. and 1% MEM non-essential amino acid (Sigma, Cat #M7145) in a humid atmosphere containing 5% CO2. The cells were seeded at 2.5×10^3 cells/well in a 96 well plate (BD falcon, Cat #353072) with 200 pt volume/well and kept in 37° C./5% CO2 incubator for 0/N incubation. The seeding density was optimized previously based on growth curve. On the next day, plated cells were incubated with each test compounds at eight different concentrations (100, 50, 25, 12.5, 6.25, 3.125, 1.5 and 0.78) in triplicates. DMSO was used as a Vehicle control and Culture medium was used as blank control for the assay in each plate. The percentage of DMSO was kept uniform across the plate as <1%. The compound treated cells were incubated in 37° C./5% CO2 incubator for 72 hours. After incubation period, […] CCK-8 reagent (Dojindo, Cat #CK04) was added in all the wells and plate was kept in 37° C./5% CO2 incubator for 3 hours. After CCK-8 incubation, absorbance was measured @ 450 nm using Spectrophotometer (BMG, Omega Polar Star). % Viability values at each concentration were calculated with respect to Vehicle control and EC50 values were calculated using graph pad prism software and are shown in Table A.

Compound | EC50 (Homo sapiens, U-251, 72 h) | EC50
COCC(=O)O[C@]1(CCN(C)CCCc2nc3ccccc3[nH]2)CCc2cc(F)ccc2[C@@H]1C(C)C [Mibefradil, mibefradil, reference compound] | 12 µM | –
CNC(=O)OC1(CCN(C)CCCc2nc3c(C)ccc(C)c3[nH]2)COc2cc(F)ccc2[C@@H]1C(C)C (stereo partly drawn) [Example 21B, (4S)-3-(2-((3-(4,7-Dimethyl-1H-benzo[d]imidazol-2-yl)propyl)(methyl)amino)ethyl)-7-fluoro-4-isopropylchroman-3-yl methylcarbamate] | – | 9 µM
CC(C)[C@H]1c2ccc(F)cc2CC[C@@]1(CCN(C)CCC1(c2nc3ccccc3[nH]2)CC1)OC(=O)N1CCOCC1 [Example 19, (1S,2S)-2-(2-((2-(1-(1H-Benzo[d]imidazol-2-yl)cyclopropyl)ethyl)(methyl)amino)ethyl)-6-fluoro-1-isopropyl-1,2,3,4-tetrahydronaphthalen-2-yl morpholine-4-carboxylate] | 23 µM | –
COCCNC(=O)O[C@]1(CCN(C)CCCc2nc3c(OC)ccc(OC)c3[nH]2)CCc2cc(F)ccc2[C@@H]1C(C)C [Example 6, (1S,2S)-2-(2-((3-(4,7-Dimethoxy-1H-benzo[d]imidazol-2-yl)propyl)(methyl)amino)ethyl)-6-fluoro-1-isopropyl-1,2,3,4-tetrahydronaphthalen-2-yl (2-methoxyethyl)carbamate] | 15 µM | –
CNC(=O)O[C@]1(CCN(C)CCC(C)(C)c2nc3ccccc3[nH]2)CCc2cc(F)ccc2[C@@H]1C(C)C [Example 10, (1S,2S)-2-(2-((3-(1H-Benzo[d]imidazol-2-yl)-3-methylbutyl)(methyl)amino)ethyl)-6-fluoro-1-isopropyl-1,2,3,4-tetrahydronaphthalen-2-yl methylcarbamate] | 9.5 µM | –
CNC(=O)O[C@]1(CCN(C)CCCc2nc3c(OC)ccc(OC)c3[nH]2)CCc2cc(F)ccc2[C@@H]1C(C)C [Example 5, (1S,2S)-2-(2-((3-(4,7-Dimethoxy-1H-benzo[d]imidazol-2-yl)propyl)(methyl)amino)ethyl)-6-fluoro-1-isopropyl-1,2,3,4-tetrahydronaphthalen-2-yl methylcarbamate] | 10 µM | –
CC(C)[C@H]1c2ccc(F)cc2CC[C@@]1(CCN(C)CCC(C)(C)c1nc2ccccc2[nH]1)OC(=O)N1CCOCC1 [Example 9, (1S,2S)-2-(2-((3-(1H-Benzo[d]imidazol-2-yl)-3-methylbutyl)(methyl)amino)ethyl)-6-fluoro-1-isopropyl-1,2,3,4-tetrahydronaphthalen-2-yl morpholine-4-carboxylate] | 68 µM | –
CNC(=O)OC1(CCN(C)CCCc2nc3ccccc3[nH]2)COc2cc(F)ccc2[C@@H]1C(C)C (single isomer, unassigned) [Example 20B] | – | 12 µM
COCCNC(=O)O[C@]1(CCN(C)CCC(C)(C)c2nc3ccccc3[nH]2)CCc2cc(F)ccc2[C@@H]1C(C)C [Example 12, (1S,2S)-2-(2-((3-(1H-Benzo[d]imidazol-2-yl)-3-methylbutyl)(methyl)amino)ethyl)-6-fluoro-1-isopropyl-1,2,3,4-tetrahydronaphthalen-2-yl (2-methoxyethyl)carbamate] | 12 µM | –
CNC(=O)OC1(CCN(C)CCCc2nc3ccccc3[nH]2)COc2cc(F)ccc2[C@@H]1C(C)C (single isomer, unassigned) [Example 20A] | – | 54 µM
COC(=O)O[C@]1(CCN(C)CCCc2nc3ccccc3[nH]2)CCc2cc(F)ccc2[C@@H]1C(C)C [Example 2, (1S,2S)-2-(2-((3-(1H-Benzo[d]imidazol-2-yl)propyl)(methyl)amino)ethyl)-6-fluoro-1-isopropyl-1,2,3,4-tetrahydronaphthalen-2-yl methylcarbonate] | 10 µM | –

Second part, the compound after the results:

EC50 (Homo sapiens, U-251, 72 h) | EC50 | Compound
6 µM | – | Cc1ccc(C)c2[nH]c(CCCN(C)CC[C@@]3(OC(=O)N(C)C)CCc4cc(F)ccc4[C@@H]3C(C)C)nc12 [Example 16, (1S,2S)-2-(2-((3-(4,7-dimethyl-1H-benzo[d]imidazol-2-yl)propyl)(methyl)amino)ethyl)-6-fluoro-1-isopropyl-1,2,3,4-tetrahydronaphthalen-2-yl dimethylcarbamate]
7.7 µM | – | COc1ccc(Cl)c2[nH]c(CCCN(C)CC[C@@]3(OC(=O)N(C)C)CCc4cc(F)ccc4[C@@H]3C(C)C)nc12 [Example 7, (1S,2S)-2-(2-((3-(7-Chloro-4-methoxy-1H-benzo[d]imidazol-2-yl)propyl)(methyl)amino)ethyl)-6-fluoro-1-isopropyl-1,2,3,4-tetrahydronaphthalen-2-yl dimethylcarbamate]
4.3 µM | – | Cc1ccc(C)c2[nH]c(CCCN(C)CC[C@]3(OC(=O)N4CCOCC4)CCc4cc(F)ccc4[C@H]3C(C)C)nc12 [Example 17, (1R,2R)-2-(2-((3-(4,7-Dimethyl-1H-benzo[d]imidazol-2-yl)propyl)(methyl)amino)ethyl)-6-fluoro-1-isopropyl-1,2,3,4-tetrahydronaphthalen-2-yl morpholine-4-carboxylate]
3.8 µM | – | CCN(CC)CCNC(=O)O[C@]1(CCN(C)CCC(C)(C)c2nc3ccccc3[nH]2)CCc2cc(F)ccc2[C@@H]1C(C)C [Example 14, (1S,2S)-2-(2-((3-(1H-Benzo[d]imidazol-2-yl)-3-methylbutyl)(methyl)amino)ethyl)-6-fluoro-1-isopropyl-1,2,3,4-tetrahydronaphthalen-2-yl (2-(diethylamino)ethyl)carbamate]
4.6 µM | – | CC(C)[C@H]1c2ccc(F)cc2CC[C@@]1(CCN(C)CCC(C)(C)c1nc2ccccc2[nH]1)OC(=O)NCCN1CCCC1 [Example 13, (1S,2S)-2-(2-((3-(1H-Benzo[d]imidazol-2-yl)-3-methylbutyl)(methyl)amino)ethyl)-6-fluoro-1-isopropyl-1,2,3,4-tetrahydronaphthalen-2-yl (2-(pyrrolidin-1-yl)ethyl)carbamate]
6.8 µM | – | CC(C)[C@H]1c2ccc(F)cc2CC[C@@]1(CCN(C)CCCc1nc2c(C(F)(F)F)cc(C(F)(F)F)cc2[nH]1)OC(=O)N1CCOCC1 [Example 8, (1S,2S)-2-(2-((3-(4,6-Bis(trifluoromethyl)-1H-benzo[d]imidazol-2-yl)propyl)(methyl)amino)ethyl)-6-fluoro-1-isopropyl-1,2,3,4-tetrahydronaphthalen-2-yl morpholine-4-carboxylate]
7 µM | – | CNC(=O)OC1(CCN(C)CCCc2nc3c(C)ccc(C)c3[nH]2)COc2cc(F)ccc2[C@@H]1C(C)C (stereo partly drawn) [Example 21A, (4S)-3-(2-((3-(4,7-Dimethyl-1H-benzo[d]imidazol-2-yl)propyl)(methyl)amino)ethyl)-7-fluoro-4-isopropylchroman-3-yl methylcarbamate]
6 µM | – | CNC(=O)O[C@]1(CCN(C)CCCc2nc3c(C)ccc(C)c3[nH]2)CCc2cc(F)ccc2[C@@H]1C(C)C [Example 3, (1S,2S)-2-(2-((3-(4,7-Dimethyl-1H-benzo[d]imidazol-2-yl)propyl)(methyl)amino)ethyl)-6-fluoro-1-isopropyl-1,2,3,4-tetrahydronaphthalen-2-yl methylcarbamate]
6 µM | – | CNC(=O)O[C@]1(CCN(C)CCCc2nc3ccccc3[nH]2)CCc2cc(F)ccc2[C@@H]1C(C)C [Example 1, (1S,2S)-2-(2-((3-(1H-Benzo[d]imidazol-2-yl)propyl)(methyl)amino)ethyl)-6-fluoro-1-isopropyl-1,2,3,4-tetrahydronaphthalen-2-yl methylcarbamate]
2.5 µM | – | CC(C)[C@H]1c2ccc(F)cc2CC[C@@]1(CCN(C)CCC(C)(C)c1nc2ccccc2[nH]1)OC(=O)NCCN(C)C [Example 11, (1S,2S)-2-(2-((3-(1H-Benzo[d]imidazol-2-yl)-3-methylbutyl)(methyl)amino)ethyl)-6-fluoro-1-isopropyl-1,2,3,4-tetrahydronaphthalen-2-yl (2-(dimethylamino)ethyl)carbamate]
2.5 µM | – | Cc1ccc(C)c2[nH]c(CCCN(C)CC[C@@]3(OC(=O)NCCN(C)C)CCc4cc(F)ccc4[C@@H]3C(C)C)nc12 [Example 4, (1S,2S)-2-(2-((3-(4,7-Dimethyl-1H-benzo[d]imidazol-2-yl)propyl)(methyl)amino)ethyl)-6-fluoro-1-isopropyl-1,2,3,4-tetrahydronaphthalen-2-yl (2-(dimethylamino)ethyl)carbamate]
